Laboratory results from patent US20240261302A1, “METHODS OF TREATING NEURODEGENERATIVE DISEASES OR CONDITIONS” (FloraScience Inc., priority 2023, published 2024).

Columns and labels:
[1] = system: HT22 mt-GFP/mCherry-Parkin cells; assay: Cell viability after RSL3 with/without FCCP (CyQUANT DNA-based assay, fluorescence microscopy), mt-GFP/mCherry-Parkin cells; parameters: species or system mouse; settings: for protection against RSL3-induced cell death, no FCCP pretreatment: 16 hr; for protection against RSL3 after FCCP pretreatment (mitochondria-depleted cells): FCCP 5 μM 24 hr, then 16 hr
[2] = Cell-free, liposome-based assay of lipid peroxidation (STY-BODIPY); format: biochemical; settings: test compounds 10 μM
Method: For the cell-free, liposome-based assay, STY-BODIPY (1.5 μM) and liposomes of egg-PC (1 mM) (Avanti Polar Lipids Inc, Cat #840051P, AL) in TBS (pH 7.4) were added to an opaque 96-well plate. This was followed by the addition of test compounds (10 μM). The plate was incubated for 30 min at 37° C. and then vigorously mixed for 5 min. The autoxidation was initiated by the addition of V-70 (0.5 mM) (Fujifilm Wako, Cat #001-70078, Japan), followed by additional mixing for 5 min. Data were acquired at Ex/Em=488/518 nm every 15 min at 37° C. on a SpectraMax M5 microplate reader. Data were transformed into [ox-STY-BODIPY] by taking the raw fluorescent values of the saturated curve of control DMSO and dividing them by the initial concentration of reduced STY-BODIPY ([…]). Samples were analyzed in quadruplicate in four independent experiments (n=4).

HT22 cells [3] = assay: Cellular Lipid Peroxidation Measurement (C11-BODIPY); format: cell-based, mouse
Method: Lipid Peroxidation MeasurementsHT22 cells were seeded onto 96-well black walled plates at a density of 3,000 cells/well in DMEM supplemented with 10% FBS and 1% antibiotics. After the desired treatments, cells were labeled with 2.5 μM C11-BODIPY 581/591 (oxidized form Ex/Em=488/520 nm) at 37° C. for 2 hr. Experiments were performed according to the manufacturer's instructions. Fluorescence was measured on a SpectraMax M5 microplate reader. Data were normalized for total protein/well. Each condition was analyzed in twelve wells per independent experiment (n=12). Results were presented as the percentage of the controls with vehicle alone. Results were verified by live-cell imaging under a fluorescence microscope.

HT22 cells [4] = assay: Oxytosis Assay (glutamate-induced cell death, MTT); format: cell-based, mouse; settings: 5 mM, 16 hr, vs control group
Method: Oxytosis Assay. HT22 cells were seeded at 3,000 cells/well in 96-well tissue culture plates in DMEM plus 10% FBS and 1% antibiotics. After 24 hr of plating, the cells were pretreated with different concentrations of the test compounds or a vehicle control for 1 hr followed by coincubation with 5 mM glutamate to initiate the cell death cascade. After 16 hr of treatment, cell viability was measured by the 3−(4,5-dimethylthiazol-2-yl)-2,5-diphenyltetrazolium bromide (MTT) assay. Optical absorbance was measured at 570 nm on a SpectraMax M5 microplate reader. Samples were analyzed in eight to sixteen wells per independent experiment (n=8-16). Results were presented as the percentage of the controls with vehicle alone.

HT22 cells [5] = assay: Ferroptosis Assay (RSL3-induced cell death, MTT); format: cell-based, mouse; settings: Mus musculus, HT-22; HT22 cells, 1 hr pretreatment, 50 nM RSL3, 16 hr, MTT; read-out: Observed EC50 RSL3
Method: Ferroptosis Assay: HT22 cells were seeded at 3,000 cells/well in 96-well tissue culture plates in DMEM plus 10% FBS and 1% antibiotics. After 24 hr of plating, the cells were pretreated with different concentrations of test compounds or a vehicle control for 1 hr followed by coincubation with 50 nM RSL3 to induce the cell death cascade. After 16 hr of treatment, cell viability was measured by the MTT assay. Optical absorbance was measured at 570 nm on a SpectraMax M5 microplate reader. Samples were analyzed in eight to sixteen wells per independent experiment (n=8-16). Results were presented as the percentage of the controls with vehicle alone.

HT22 cells [6] = assay: Oxytosis/ferroptosis assay with erastin (Table 2); format: cell-based; settings: Mus musculus, HT-22; erastin as inducer; method not given; read-out: Observed EC50 erastin

Row | SMILES | EC50 (HT22 cells [5]) | EC50 (HT22 cells [6]) | also measured
1 | CCOC(=O)c1ccc(NC2CCCCC2)c(N)c1 [ferrostatin] |  |  | protection against RSL3-induced cell death, no FCCP pretreatment [1]: effectively protected; protection against RSL3 after FCCP pretreatment (mitochondria-depleted cells) [1]: rescued; inhibition of lipid peroxidation, cell-free [2]: showed a potent effect against lipid peroxidation; RSL3-induced cellular lipid peroxidation (HT22 cells [3]; 50 nM RSL3, 16 hr, p<0.0001): effectively suppressed; basal cellular lipid peroxidation, compound alone (HT22 cells [3]; CBN 5 μM, ferrostatin 10 μM, 16 hr): neither CBN (5 μM) nor ferrostatin (10 μM) alone changed basal levels of lipid peroxidation
2 | N[C@@H](CCC(=O)O)C(=O)O [glutamate, reference compound] |  |  | cell death by inducer alone (HT22 cells [4]): 40-60%
3 | CCCCCc1cc(O)c(-c2cccc(C)c2)c(O)c1 [4-DI-CBND, 3′-methyl-4-pentyl-[1,1′-biphenyl]-2,6-diol] | 4200 nM | 9600 nM | 
4 | COC1=C(OC)C(=O)C(CCCCCCCCCC[P+](c2ccccc2)(c2ccccc2)c2ccccc2)=C(C)C1=O [MitoQ] |  |  | protection against RSL3-induced cell death, no FCCP pretreatment [1]: effectively protected; protection against RSL3 after FCCP pretreatment (mitochondria-depleted cells) [1]: showed no cytoprotection
5 | CCCCCc1cc(O)c(C/C=C(\C)CCC=C(C)C)c(O)c1 [CBG, 2-[(2E)-3,7-Dimethylocta-2,6-dienyl]-5-pentyl-benzene-1,3-diol] | 3200 nM | 10800 nM | 
6 | CCCCCc1cc(O)c2c(c1)OC(C)(C)c1ccc(CO)cc1-2 [11-OH-CBN, 9-(hydroxymethyl)-6,6-dimethyl-3-pentyl-6H-benzo[c]chromen-1-ol] | 1300 nM | 4700 nM | 
7 | C=C(C)C1CCC(C)=CC1c1c(OC(C)=O)cc(CCCCC)cc1OC(C)=O (stereo not drawn) [CBD-(OAc)2, 5′-methyl-4-pentyl-2′-(prop-1-en-2-yl)-1′,2′,3′,4′-tetrahydro-[1,1′-biphenyl]-2,6-diyl diacetate] | 2400 nM | 9100 nM | 
8 | CCCCCc1cc(O)c2c(c1)OC1(C)CCC(=C(C)C)C2C1 (stereo not drawn) [D4(8)-iso-THC, 3,4,5,6-tetrahydro-2-methyl-5-(1-methylethylidene)-9-pentyl-2,6-methano-2H-1-benzoxocin-7-ol] | 340 nM | 1500 nM | 
9 | CCCCCc1cc(OC)c2c(c1)OC(C)(C)c1ccc(C)cc1-2 [CBN-OMe, 1-methoxy-6,6,9-trimethyl-3-pentyl-benzo[c]chromene] | > 10000 nM | > 10000 nM | 
10 | CCCCCc1cc(O)c2c(c1)OC(C)(C)C1CCC(C)CC21 (stereo not drawn) [HHC, 6,6,9-trimethyl-3-pentyl-6a,7,8,9,10,10a-hexahydro-6H-benzo[c]chromen-1-ol] | 300 nM | 500 nM | 
11 | CCCCCc1cc(O)c(-c2cc(C)ccc2C(C)C)c(O)c1 [H2CBND, 2,6-dihydroxy-4-pentyl-2′-isopropyl-5′-methyl-1,1′-biphenyl] | 2400 nM | 5700 nM | 
12 | CCCCCc1cc(O)c2c(c1)O[C@@H]1CCC(C)=C[C@]21C(C)C [D8(9)-iso-THCBF, (5aR,9aR)-9a-isopropyl-8-methyl-3-pentyl-5a,6,7,9a-tetra-hydrodibenzo[b,d]furan-1-ol] | 1400 nM | 5100 nM | 
13 | CCCc1cc(O)c2c(c1)OC(C)(C)C1CCC(C)=CC21 (stereo not drawn) [THCV, 6,6,9-Trimethyl-3-propyl-6a,7,8,10a-tetrahydro-6H-benzo[c]chromen-1-ol] | 780 nM | 3400 nM | 
14 | CCCCCc1cc2c3c(c1)OC(C)(C)C1CCC(C)(CC31)O2 (stereo not drawn) [CBT, 1,5,5-trimethyl-9-pentyl-6,15-dioxa-tetracyclo[9.3.1.0^4,13.0^7,12]-pentadeca-7(12),8,10-triene] | > 10000 nM | > 10000 nM | 
15 | CCCCCc1cc(O)c([C@H]2CC(C)CC[C@@H]2C(C)C)c(O)c1 (stereo partly drawn) [H4CBD, 2-[(1S,6R)-6-Isopropyl-3-methylcyclohexyl]-5-pentylbenzene-1,3-diol] | 400 nM | 300 nM | 
16 | CCCCCc1cc(O)c2c(c1)O[C@H]1[C@@H]2[C@H](C(C)C)CC[C@]1(C)O [H2CBE, (5aS,6S,9S,9aR)-9-isopropyl-6-methyl-3-pentyl-5a,6,7,8,9,9a-hexahydrodi-benzo[b,d]furan-1,6-diol] | 3500 nM | 9200 nM | 
17 | CCCCCc1cc2c(c(O)c1C(=O)O)-c1cc(C)ccc1C(C)(C)O2 [CBNA, 1-hydroxy-6,6,9-trimethyl-3-pentyl-benzo[c]chromene-2-carboxylic acid] | > 10000 nM | > 10000 nM | 
18 | CCCCCc1cc(O)c2c(c1)OC1(C)CCC3C1C2C3(C)C (stereo not drawn) [CBL, (1aR-(1a alpha,3a alpha,8b alpha,8calpha))-1a,2,3,3a,8b,8c-hexahydro-1,1,3a-trimethyl-6-pentyl-1H-4-oxabenzo(f)-cyclobut(cd)inden-8-ol] | 770 nM | 3300 nM | 
19 | CCCCCc1cc(O)c(CCC(C)CCCC(C)C)c(O)c1 (stereo not drawn) [H4CBG, 2-(3,7-dimethyloctyl)-5-pentylbenzene-1,3-diol] | 400 nM | 700 nM | 
20 | CCCCCc1cc(O)c2c(c1)O[C@]1(C)CC[C@@H](C(C)C)[C@H]2C1 [iso-HHC, (2α,5α,6α)-(−)-3,4,5,6-tetrahydro-2-methyl-5-(1-methylethyl)-9-pentyl-2,6-methano-2H-1-benzoxocin-7-ol] | 800 nM | 2400 nM | 
21 | CCc1cc(O)c2c(c1)OC(C)(C)c1ccc(C)cc1-2 [CBN-C2, 3-ethyl-6,6,9-trimethyl-6H-benzo[c]chromen-1-ol] | 1800 nM | 5600 nM | 
22 | CCCCCc1cc(O)c([C@H]2C=C(C)CC[C@@H]2C(C)C)c(O)c1 [H2CBD, 2-[(1R,6R)-6-Isopropyl-3-methylcyclohex-2-en-1-yl]-5-pentylbenzene-1,3-diol] | 1100 nM | 4800 nM | 
23 | CCCCc1cc(O)c2c(c1)OC(C)(C)c1ccc(C)cc1-2 [CBN-C4, 3-butyl-6,6,9-trimethyl-6H-benzo[c]chromen-1-ol] | 1100 nM | 2100 nM | 
24 | C=C(C)[C@@H]1CCC(C)=C[C@H]1c1c(O)cc(CCCCC)c(C(=O)O)c1O [CBDA, (1′R,2′R)-2,6-Dihydroxy-5′-methyl-4-pentyl-2′-(prop-1-en-2-yl)-1′,2′,3′,4′-tetrahydro[1,1′-biphenyl]-3-carboxylic acid] | 9300 nM | > 10000 nM | 
25 | CCCCCc1cc(O)c2c(c1)OC(C)(C)C1=C2CC(C)CC1 (stereo not drawn) [D6a,10a-THC, 6,6,9-trimethyl-3-pentyl-7,8,9,10-tetrahydro-6H-benzo[c]chromen-1-ol] | 700 nM | 1800 nM | 
26 | C=C(C)[C@@H]1CCC(C)=C[C@H]1c1c(O)cc(CCC)cc1O [CBDV, 2-[(1R,6R)-6-Isopropenyl-3-methylcyclohex-2-en-1-yl]-5-propylbenzene-1,3-diol] | 1000 nM | 3800 nM | 
